What was measured:
MDA‐MB‐436 = assay: Cell growth inhibition, CellTiter‐Glo (CTG); type: cell-based; settings: Homo sapiens, MDA-MB-436, 120 h; CTG, 5 days, n = 3
Method: All cells were grown in a humidified incubator at 37 °C and 5% CO2.
Growth viability was determined by the CellTiter‐Glo luminescent viability assay (Promega) 5 days after drug treatment. Cell viability was measured immediately after dosing (Day 0) and after 5 days of incubation using CellTiter‐Glo (CTG, Promega, G7573). Relative viability was calculated by normalizing the raw luminescence counts of the treated groups to those of the DMSO control groups. IC₅₀ values were calculated using sigmoidal dose‐response curve fitting with GraphPad Prism 9.0 software.

DNA‐PK = DNA‐PK (Homo sapiens, UniProt P78527); assay: PIKK family kinase selectivity; type: biochemical
MDA‐MB‐231 cells [1] = assay: Cell cycle assay, flow cytometry (PI); type: cell-based; settings: MDA‐MB‐231, 48 h; A7, B8 0.5 and 1.0 µM, controls 1.0 µM
Method: (§1) The cell cycle analysis was performed with cells seeded in 6‐well plates in growth media. The cells were allowed to attach overnight (8 h). The cultures were treated with different tested drugs for 48 h. After treatment, cells were collected and fixed with 70% pre‐cold ethanol in PBS and stored at −20 °C overnight. Then washed the cells with PBS twice, and incubated with 100 µg mL^−1 RNase A at 37 °C for 1 h, stained with propidium iodide for 30 min avoid light at room temperature. The stained cells were analyzed by flow cytometry. The percentages of cells in the G1, S, and G2/M phases were determined. The data were analyzed by FlowJo software (Tree Star, Inc., Ashland, OR).

MDA‐MB‐468 cells [2] = assay: Cell cycle assay, flow cytometry (PI); type: cell-based; settings: MDA‐MB‐468, 48 h; A7, B8 0.5 and 1.0 µM, controls 1.0 µM
Method: as §1

MDA‐MB‐468 xenograft = assay: MDA‐MB‐468 xenografted mice model, antitumor efficacy; type: in vivo; settings: 28 days
Method: Anticancer efficacy experiment in MDA‐MB‐468 Xenografted mice model was performed by Shanghai Medicilon Inc. All animal experiments in this study were conducted in strict accordance with national animal welfare regulations and were approved by the institutional animal ethics committee (Approval number: IACUC‐HZN2401P; Approval Date: 2024‐10‐18). MDA‐MB‐468 cells (1 × 10^7) were implanted in the right flanks subcutaneously in female nude mice. When the implanted tumor grew to a volume of 110 mm^3, the animals were randomly divided into four groups, each group containing four animals. Compound B8 was intraperitoneally (IP) administered at two different doses, bis in die (BID) for 28 days: low dose: 25 mg k^−1g and high dose 50 mg k^−1g. […] Tumor size and body weights were measured twice a week. On day 28, the mice were euthanized, tumors were harvested and weighed, and vital organs (heart, liver, spleen, lung, and kidney) were collected. Processed samples were saved for further safety evaluation.

MDA‐MB‐231 cells [3] = assay: Transwell invasion assay (Matrigel); type: cell-based; settings: 24 h, vs AZD6738 and Olaparib alone or their combination
Method: (§2) For the wound‐healing assay, MDA‐MB‐231 cells were seeded into 6‐well plates and grown to 80% confluence. A scratch was made in the cell monolayer using a 20 µL pipette tip, and the cells were washed with PBS to remove floating cells and debris. The cells were then incubated in serum‐free medium. Cells are divided into control and drug treatment Cells in the scratched area were imaged at 0 and 48 h using microscopy, and the distance traveled by cells at the leading edge of the wound at each time point was measured. To assess cell migration, a transwell assay was performed. […] Following 24 h of incubation, the filters were fixed in 4% paraformaldehyde, stained with 0.1% crystal violet, and then imaged and counted under a microscope to determine the number of invading cells. To assess cell invasion, the transwell plate was coated with a layer of Matrigel, and the rest procedure is similar to what has been described above.

MDA‐MB‐468 cells [4] = assay: Transwell invasion assay (Matrigel); type: cell-based; settings: 24 h, vs AZD6738 and Olaparib alone or their combination
Method: as §2

C[C@@H]1COCCN1c1cc(CNC(=O)c2ccc(C(=O)N3CCN(C(=O)c4cc(Cc5n[nH]c(=O)c6ccccc56)ccc4F)CC3)cc2)nc(-c2ccnc3[nH]ccc23)n1 [Compound B8, (R)‐4‐(4‐(2‐fluoro‐5‐((4‐oxo‐3,4‐dihydrophthalazin‐1‐yl)methyl)benzoyl)piperazine‐1‐carbonyl)‐N‐((6‐(3‐methylmorpholino)‐2‐(1H‐pyrrolo[2,3‐b]pyridin‐4‐yl)pyrimidin‐4‐yl)methyl) benzamide]
IC50 (MDA‐MB‐436): 9 ± 2 nM | IC50 (DNA‐PK): > 5 µM | effect on cell cycle distribution (MDA‐MB‐231 cells [1]): markedly increased the proportion of G2/M phase cells | effect on cell cycle distribution (MDA‐MB‐468 cells [2]): markedly increased the proportion of G2/M phase cells | tumor growth inhibition rate (TGI) (MDA‐MB‐468 xenograft; B8 50 mg/kg I.P., female nude mice): 68.36% | tumor weight and volume (MDA‐MB‐468 xenograft; B8‐treated mice): significantly lower than control groups | invasive capacity (MDA‐MB‐231 cells [3]): superior inhibitory effects on the invasive capacity | invasive capacity (MDA‐MB‐468 cells [4]): superior inhibitory effects on the invasive capacity

From publication PMC12362783 (Advanced Science, 2025)
